Reference: paper PMC4786259 (PLoS ONE, 2016)
pEC50, pIC50, pKi: −log10 of the molar value. Read-outs that look alike come from different tables or passages of the source.

What was measured:
α1A = α1A (Homo sapiens, UniProt P35348); assay: PDSP radioligand competition binding; settings: radioligand [^3H]Prazosin; read-out: In vitro Affinity
male NIH Swiss mice = assay: DOI drug discrimination; type: in vivo
5-HT6 = target: T1, 5-HT6 (Homo sapiens, UniProt P50406); assay: PDSP receptor functional assay; type: cell-based
T1 construct: expressed in transfected cells
T1 sequence (P50406 whole entry, species assumed): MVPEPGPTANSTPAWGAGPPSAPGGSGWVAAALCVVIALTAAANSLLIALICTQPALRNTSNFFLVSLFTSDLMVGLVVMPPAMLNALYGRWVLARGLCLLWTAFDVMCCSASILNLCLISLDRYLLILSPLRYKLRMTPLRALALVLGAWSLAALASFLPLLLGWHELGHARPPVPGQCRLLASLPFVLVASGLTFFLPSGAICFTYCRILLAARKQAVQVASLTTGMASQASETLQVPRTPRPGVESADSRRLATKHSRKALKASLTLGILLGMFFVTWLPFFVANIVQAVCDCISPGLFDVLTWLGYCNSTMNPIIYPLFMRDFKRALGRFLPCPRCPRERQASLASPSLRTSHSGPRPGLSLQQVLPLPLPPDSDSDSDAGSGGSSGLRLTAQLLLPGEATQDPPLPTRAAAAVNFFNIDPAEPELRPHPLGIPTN

D4 = target: T2, D4 (Homo sapiens, UniProt P21917); assay: PDSP receptor functional assay; type: cell-based
T2 construct: expressed in transfected cells
T2 sequence (P21917 1-419): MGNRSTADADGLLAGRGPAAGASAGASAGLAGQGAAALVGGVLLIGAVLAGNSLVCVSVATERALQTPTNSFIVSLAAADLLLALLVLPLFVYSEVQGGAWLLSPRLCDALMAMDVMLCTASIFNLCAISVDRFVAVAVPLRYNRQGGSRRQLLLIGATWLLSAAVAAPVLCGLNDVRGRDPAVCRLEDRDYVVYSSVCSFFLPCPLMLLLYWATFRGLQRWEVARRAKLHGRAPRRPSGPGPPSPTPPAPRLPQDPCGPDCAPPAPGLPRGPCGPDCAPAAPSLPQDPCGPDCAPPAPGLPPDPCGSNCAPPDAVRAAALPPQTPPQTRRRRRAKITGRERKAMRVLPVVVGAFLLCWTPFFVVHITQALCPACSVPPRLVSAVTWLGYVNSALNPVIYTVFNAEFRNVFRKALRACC

DOR = DOR (Homo sapiens, UniProt P41143); assay: PDSP radioligand competition binding; settings: radioligand [^3H]DADLE; read-out: In vitro Affinity
Chain of DOR (P41143 whole entry): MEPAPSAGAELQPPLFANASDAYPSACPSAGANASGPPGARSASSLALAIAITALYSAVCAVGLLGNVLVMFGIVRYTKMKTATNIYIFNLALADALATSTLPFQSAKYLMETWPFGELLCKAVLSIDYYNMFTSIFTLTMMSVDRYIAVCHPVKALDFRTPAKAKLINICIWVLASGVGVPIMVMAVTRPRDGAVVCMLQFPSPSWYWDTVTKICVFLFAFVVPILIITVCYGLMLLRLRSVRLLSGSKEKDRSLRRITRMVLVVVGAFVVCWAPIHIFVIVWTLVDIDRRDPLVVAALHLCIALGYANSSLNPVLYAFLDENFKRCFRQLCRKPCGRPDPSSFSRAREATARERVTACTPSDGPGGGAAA

5-HT2C [1] = target: T3, 5-HT2C (Homo sapiens, UniProt P28335); assay: PDSP receptor functional assay; type: cell-based
T3 construct: expressed in transfected cells
T3 sequence (P28335 33-458): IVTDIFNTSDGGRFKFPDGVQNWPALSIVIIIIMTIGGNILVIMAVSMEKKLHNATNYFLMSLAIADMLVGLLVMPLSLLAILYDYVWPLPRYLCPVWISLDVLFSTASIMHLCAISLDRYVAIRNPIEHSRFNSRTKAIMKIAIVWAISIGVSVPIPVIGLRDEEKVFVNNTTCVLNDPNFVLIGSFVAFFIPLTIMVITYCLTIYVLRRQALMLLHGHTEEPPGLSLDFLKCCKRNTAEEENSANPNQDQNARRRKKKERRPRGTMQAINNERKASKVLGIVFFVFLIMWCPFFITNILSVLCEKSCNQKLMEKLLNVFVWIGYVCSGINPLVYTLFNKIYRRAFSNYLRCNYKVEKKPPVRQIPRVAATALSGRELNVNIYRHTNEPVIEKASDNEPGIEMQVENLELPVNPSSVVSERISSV

α2A = α2A (Homo sapiens, UniProt P08913); assay: PDSP radioligand competition binding; settings: radioligand [^3H]Rauwolscine; read-out: In vitro Affinity
Chain of α2A (P08913 whole entry): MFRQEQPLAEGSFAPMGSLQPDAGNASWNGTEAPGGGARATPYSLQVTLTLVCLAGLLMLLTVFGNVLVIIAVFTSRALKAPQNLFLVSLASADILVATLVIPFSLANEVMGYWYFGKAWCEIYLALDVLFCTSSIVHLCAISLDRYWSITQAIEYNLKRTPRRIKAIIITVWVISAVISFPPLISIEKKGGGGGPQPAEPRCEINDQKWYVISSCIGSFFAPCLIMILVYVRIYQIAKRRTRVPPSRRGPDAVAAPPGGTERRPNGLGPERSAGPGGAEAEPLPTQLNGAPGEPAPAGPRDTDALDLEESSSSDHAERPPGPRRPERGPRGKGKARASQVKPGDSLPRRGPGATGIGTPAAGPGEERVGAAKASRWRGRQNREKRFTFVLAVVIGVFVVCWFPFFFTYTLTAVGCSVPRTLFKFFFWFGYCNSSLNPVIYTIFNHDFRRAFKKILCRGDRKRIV

male C57BL/6J mice [2] = assay: PCP-induced hyperlocomotor activity (open field); type: in vivo
Method: (§1) Locomotor activity was assessed in AccuScan activity monitors (41X41X30 cm; AccuScan Instruments, Columbus, OH) with photocells spaced at 1.52 cm as described. In these monitors, the photocells create a grid of light beams, and breaks in the light beams (caused by the mouse) are recorded. The Accuscan software then calculates the total distance travelled (amongst other measurements) by analyzing the sequential order of beam breaks in the grid. Horizontal activity was measured as the total distance traveled in centimeters and was recorded in 5-minute bins. PCP-induced hyperlocomotor activity: mice (n = 16) previously acclimated to activity chambers were placed into the chambers for 15 minutes. […] Subsequently, mice were injected with 6.0 mg/kg PCP (i.p.) and returned to the chamber for 90 minutes. Induction of AMPH-induced hyperlocomotor activity followed an identical protocol except locomotor activity was recorded for a total of 75 minutes and 3 mg/kg AMPH was used (i.p.).

5-HT1A = target: T4, 5-HT1A (Homo sapiens, UniProt P08908); assay: PDSP receptor functional assay; type: cell-based
T4 construct: expressed in transfected cells
T4 sequence (P08908 1-422): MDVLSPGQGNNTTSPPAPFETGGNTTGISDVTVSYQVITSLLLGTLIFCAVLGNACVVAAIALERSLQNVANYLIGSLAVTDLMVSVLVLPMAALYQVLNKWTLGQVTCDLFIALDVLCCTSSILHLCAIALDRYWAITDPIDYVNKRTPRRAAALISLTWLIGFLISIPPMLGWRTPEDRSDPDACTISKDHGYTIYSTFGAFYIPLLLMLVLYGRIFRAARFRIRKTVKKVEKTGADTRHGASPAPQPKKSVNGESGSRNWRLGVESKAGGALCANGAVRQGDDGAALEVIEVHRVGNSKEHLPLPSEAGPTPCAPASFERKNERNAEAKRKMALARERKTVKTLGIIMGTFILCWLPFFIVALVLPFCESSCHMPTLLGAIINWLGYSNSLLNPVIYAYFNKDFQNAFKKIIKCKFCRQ

5-HT2C [3] = target: T3, 5-HT2C; assay: PDSP radioligand competition binding; settings: radioligand [^3H]Mesulergine; read-out: In Vitro Affinity
V1A = V1A (Homo sapiens, UniProt P37288); assay: PDSP radioligand competition binding; settings: radioligand [^3H]Vasopressin; read-out: In vitro Affinity
Chain of V1A (P37288 whole entry): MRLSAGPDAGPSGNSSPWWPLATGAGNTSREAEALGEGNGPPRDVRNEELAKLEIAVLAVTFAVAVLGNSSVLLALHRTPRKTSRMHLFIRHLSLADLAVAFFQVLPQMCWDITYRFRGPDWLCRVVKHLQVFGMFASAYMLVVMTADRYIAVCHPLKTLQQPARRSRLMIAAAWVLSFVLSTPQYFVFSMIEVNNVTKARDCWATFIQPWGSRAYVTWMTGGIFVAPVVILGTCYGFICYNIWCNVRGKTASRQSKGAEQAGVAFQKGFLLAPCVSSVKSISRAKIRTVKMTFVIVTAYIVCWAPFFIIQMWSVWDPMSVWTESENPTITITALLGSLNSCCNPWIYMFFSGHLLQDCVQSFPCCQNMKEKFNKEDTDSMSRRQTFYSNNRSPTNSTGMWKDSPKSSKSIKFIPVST

male C57BL/6J mice [4] = assay: AMPH-induced hyperlocomotor activity (open field); type: in vivo; settings: 3 mg/kg pre-treatment, 3 mg/kg AMPH; between 35–50 min, vs amphetamine alone
Method: as §1

α2C = α2C (Homo sapiens, UniProt P18825); assay: PDSP radioligand competition binding; settings: radioligand [^3H]Rauwolscine; read-out: In vitro Affinity
Chain of α2C (P18825 whole entry): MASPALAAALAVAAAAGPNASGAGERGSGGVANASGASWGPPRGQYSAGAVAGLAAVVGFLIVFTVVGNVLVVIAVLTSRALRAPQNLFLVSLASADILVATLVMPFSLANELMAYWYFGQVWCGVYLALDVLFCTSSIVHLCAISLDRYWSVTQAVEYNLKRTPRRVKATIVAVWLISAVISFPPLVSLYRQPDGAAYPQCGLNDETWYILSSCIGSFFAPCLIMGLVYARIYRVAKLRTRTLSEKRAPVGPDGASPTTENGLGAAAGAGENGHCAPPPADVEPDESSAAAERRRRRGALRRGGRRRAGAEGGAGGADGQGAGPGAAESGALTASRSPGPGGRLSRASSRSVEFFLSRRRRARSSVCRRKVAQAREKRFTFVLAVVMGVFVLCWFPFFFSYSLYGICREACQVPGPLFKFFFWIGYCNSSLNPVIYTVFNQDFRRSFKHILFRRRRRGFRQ

male C57BL/6J mice [5] = assay: Catalepsy, inclined screen test; settings: for latency to movement: nuciferine 10.0 mg/kg i.p.
5-HT1D = 5-HT1D (Homo sapiens, UniProt P28221); assay: PDSP radioligand competition binding; settings: radioligand [^3H]5-CT; read-out: In vitro Affinity
Chain of 5-HT1D (P28221 whole entry, species assumed): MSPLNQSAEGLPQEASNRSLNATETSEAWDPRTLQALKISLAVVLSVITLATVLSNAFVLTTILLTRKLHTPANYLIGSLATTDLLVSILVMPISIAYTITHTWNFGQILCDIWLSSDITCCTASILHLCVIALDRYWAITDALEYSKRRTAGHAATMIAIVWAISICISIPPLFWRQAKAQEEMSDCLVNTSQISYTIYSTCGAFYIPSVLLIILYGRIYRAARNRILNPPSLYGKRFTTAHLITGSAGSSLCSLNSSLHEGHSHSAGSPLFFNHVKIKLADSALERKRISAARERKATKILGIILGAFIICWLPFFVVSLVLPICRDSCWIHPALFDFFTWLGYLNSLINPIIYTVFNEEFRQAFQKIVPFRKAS

mice = assay: Prepulse inhibition, pharmacological model using amphetamine; type: in vivo; settings: data not shown
5-HT5A = 5-HT5A (Homo sapiens, UniProt P47898); assay: PDSP radioligand competition binding; settings: radioligand [^3H]LSD; read-out: In vitro Affinity
Chain of 5-HT5A (P47898 whole entry, species assumed): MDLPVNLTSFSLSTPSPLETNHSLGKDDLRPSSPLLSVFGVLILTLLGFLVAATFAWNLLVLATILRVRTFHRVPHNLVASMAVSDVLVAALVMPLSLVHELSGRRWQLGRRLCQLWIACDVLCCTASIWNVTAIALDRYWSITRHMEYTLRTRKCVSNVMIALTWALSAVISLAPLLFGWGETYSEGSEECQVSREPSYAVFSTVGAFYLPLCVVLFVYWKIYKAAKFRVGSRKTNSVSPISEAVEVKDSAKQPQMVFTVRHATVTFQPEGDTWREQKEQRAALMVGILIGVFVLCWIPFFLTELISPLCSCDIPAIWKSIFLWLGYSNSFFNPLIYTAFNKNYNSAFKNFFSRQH

Chain of α1A (P35348 whole entry): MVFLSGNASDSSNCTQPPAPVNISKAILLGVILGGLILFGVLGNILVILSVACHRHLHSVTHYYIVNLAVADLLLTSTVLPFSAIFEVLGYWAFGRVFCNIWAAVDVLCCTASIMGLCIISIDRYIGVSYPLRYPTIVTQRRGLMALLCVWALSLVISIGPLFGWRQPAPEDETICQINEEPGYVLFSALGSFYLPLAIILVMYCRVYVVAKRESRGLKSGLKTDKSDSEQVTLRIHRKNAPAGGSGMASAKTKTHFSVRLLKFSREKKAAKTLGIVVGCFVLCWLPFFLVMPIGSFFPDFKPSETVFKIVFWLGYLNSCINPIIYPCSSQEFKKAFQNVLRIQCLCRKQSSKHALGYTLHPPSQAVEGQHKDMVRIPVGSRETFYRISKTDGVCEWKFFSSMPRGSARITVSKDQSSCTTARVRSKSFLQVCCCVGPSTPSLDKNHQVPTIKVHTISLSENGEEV

`COc1cc2c3c(c1OC)-c1ccccc1C[C@H]3N(C)CC2` [nuciferine] was tested, and the pKi (α1A) was 5.86, the “substitution of cumulative DOI doses for the DOI training dose” value (male NIH Swiss mice; in the presence of 1.0 mg/kg nuciferine) was “partial substitution” and the “substitution of cumulative DOI doses for the DOI training dose” value (male NIH Swiss mice; in the presence of 3.0 mg/kg nuciferine) was “no cumulative dose of DOI substituted for the training dose”. The pEC50 (5-HT6) was 6.15, the “Function Type” value (5-HT6) was “Partial agonist” and the Emax (5-HT6; read-out: maximal effect) was 17.3%. For the same molecule, the “Function Type” value (D4) was “agonist”, the pEC50 (D4; agonist) was 5.70 and the pKi (DOR) was 5.00. The “Function Type” value (5-HT2C [1]) was “Antagonist”, the pIC50 (5-HT2C [1]; 5-HT2C antagonist) was 6.88 and the pEC50 (5-HT2C [1]; antagonist) was 6.88. The pKi (α2A) was 5.94, the PCP-stimulated locomotor activity (male C57BL/6J mice [2]; 3 mg/kg i.p. before 6.0 mg/kg PCP) was “failed to significantly alter the PCP-induced hyperlocomotion” and the PCP-stimulated locomotor activity (male C57BL/6J mice [2]; 10.0 mg/kg i.p. before 6.0 mg/kg PCP) was “significantly blocked”. For the same molecule, the “Function Type” value (5-HT1A) was “Agonist”, the pEC50 (5-HT1A; 5-HT1A agonist, read-out: EC50) was 5.49 and the pEC50 (5-HT1A; agonist, read-out: Functional EC50) was 5.49. For the same molecule, the pKi (5-HT2C [3]) was 7.22, the pKi (V1A) was 5.00 and the amphetamine induced hyperlocomotion (male C57BL/6J mice [4]) was “significantly higher motor activity”. For the same molecule, the pKi (α2C) was 6.16, the catalepsy (male C57BL/6J mice [5]; 10.0 mg/kg, any of the time-points examined) was “did not produce catalepsy” and the latency to movement (male C57BL/6J mice [5]; 30 min post-injection) was 2.3 ± 2.3 s. For the same molecule, the latency to movement (male C57BL/6J mice [5]; 60 min post-injection) was 4.7 ± 2.6 s, the pKi (5-HT1D) was 6.29 and the “PPI in the pharmacological model using amphetamine” value (mice) was “failed to normalize PPI”. It also gave a pKi (5-HT5A) of 5.95.
